Measurements reported in patent publication US9238625B2, “Compositions, synthesis, and methods of using phenylcycloalkylmethylamine derivatives” (Reviva Pharmaceuticals, Inc., priority 2011, dated 2016).

How the values were obtained:
[1] = target: human recombinant transporter protein dopamine (DAT) (Homo sapiens (Human), UniProt Q01959); test: radioligand binding assay, dopamine transporter; settings: 11 test concentrations 0.1 nM to 1 μM, duplicates, hydrochloride salts
Protocol: (§1) The monoamine transporters inhibitory activities of selected cycloalkylmethylamines of Formula (I) are reported herein. The compounds were evaluated using well established radioligand binding assays protocols (Galli, A. et al., J. Exp. Biol. 1995, 198, 2197-2212; Giros, B. et al., Trends Pharmcol. Sci. 1993, 14, 43-49; Gu, H. et al., J. Biol. Chem. 1994, 269(10), 7124-7130; Shearman, L. P. et al, Am. J. Physiol., 1998, 275(6 Pt 1), C1621-1629; Wolf, W. A. et al., J. Biol. Chem. 1992, 267(29), 20820-20825). The human recombinant transporter proteins dopamine (DAT), norepinephrine (NET) and serotonin (SERT) were selected for the in vitro assays. The radioligand binding assays were carried out at 11 different test concentrations 0.1 nM to 1 μM.
(§2) The assays were carried out in duplicates and the quantitative data are reported as Ki in the Table 1.

[2] = target: human recombinant transporter protein norepinephrine (NET) (Homo sapiens (Human), UniProt P23975); test: radioligand binding assay, norepinephrine transporter; settings: 11 test concentrations 0.1 nM to 1 μM, duplicates, hydrochloride salts
Chain of human recombinant transporter protein norepinephrine (NET) (P23975 whole entry): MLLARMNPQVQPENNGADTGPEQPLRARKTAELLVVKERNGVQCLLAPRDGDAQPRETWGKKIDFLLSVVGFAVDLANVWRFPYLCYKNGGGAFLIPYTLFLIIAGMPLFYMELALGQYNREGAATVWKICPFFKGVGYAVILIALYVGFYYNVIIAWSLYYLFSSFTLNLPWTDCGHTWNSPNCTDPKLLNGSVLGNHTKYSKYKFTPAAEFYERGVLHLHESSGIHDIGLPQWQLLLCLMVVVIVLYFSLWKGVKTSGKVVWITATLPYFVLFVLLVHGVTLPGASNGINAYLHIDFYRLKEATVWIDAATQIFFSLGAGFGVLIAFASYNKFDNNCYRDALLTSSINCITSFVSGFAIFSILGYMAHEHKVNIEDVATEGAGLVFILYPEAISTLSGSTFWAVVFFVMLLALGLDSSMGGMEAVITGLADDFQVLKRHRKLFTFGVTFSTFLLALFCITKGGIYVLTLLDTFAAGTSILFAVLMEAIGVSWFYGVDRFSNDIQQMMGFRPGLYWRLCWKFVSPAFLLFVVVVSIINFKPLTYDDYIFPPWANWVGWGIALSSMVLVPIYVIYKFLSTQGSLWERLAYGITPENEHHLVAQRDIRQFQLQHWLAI
Protocol: as §1, §2

[3] = target: human recombinant transporter protein serotonin (SERT) (Homo sapiens (Human), UniProt P31645); test: radioligand binding assay, serotonin transporter; settings: 11 test concentrations 0.1 nM to 1 μM, duplicates, hydrochloride salts
Protocol: as §1, §2

[4] = active metabolites of sibutramine; cited from earlier work

Chain of human recombinant transporter protein dopamine (DAT) (Q01959 whole entry): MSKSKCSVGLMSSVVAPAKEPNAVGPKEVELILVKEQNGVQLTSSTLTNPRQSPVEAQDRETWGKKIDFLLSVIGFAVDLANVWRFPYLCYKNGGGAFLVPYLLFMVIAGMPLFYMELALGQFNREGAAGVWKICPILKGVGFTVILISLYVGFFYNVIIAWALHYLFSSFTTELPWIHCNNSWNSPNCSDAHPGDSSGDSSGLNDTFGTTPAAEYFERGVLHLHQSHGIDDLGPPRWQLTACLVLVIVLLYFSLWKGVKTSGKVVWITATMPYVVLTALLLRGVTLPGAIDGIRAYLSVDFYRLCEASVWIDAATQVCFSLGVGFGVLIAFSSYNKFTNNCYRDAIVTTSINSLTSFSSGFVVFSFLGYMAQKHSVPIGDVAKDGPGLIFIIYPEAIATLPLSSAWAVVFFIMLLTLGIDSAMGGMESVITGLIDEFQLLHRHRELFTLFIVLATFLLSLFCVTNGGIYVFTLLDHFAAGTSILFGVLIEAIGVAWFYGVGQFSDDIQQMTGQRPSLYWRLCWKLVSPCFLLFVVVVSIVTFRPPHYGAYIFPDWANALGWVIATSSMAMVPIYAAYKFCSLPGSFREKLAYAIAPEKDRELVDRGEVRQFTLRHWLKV

SMILES	Ki [1]	Ki [2]	Ki [3]	elimination half-life [4]
CCOCCCCNC(CC(C)C)C1(c2ccc(SC)cc2)CCC1 (centres unmarked) [Compound 7g, N-(4-Ethoxybutyl)-3-methyl-1-(1-(4-(methylthio)phenyl)cyclobutyl)butan-1-amine]	92 nM	37.2 nM	2.99 nM	–
CCCCSCCCCNC(CC(C)C)C1(c2ccc(Cl)c(Cl)c2)CCC1 (centres unmarked) [Compound 13d, N-(4-(Butylthio)butyl)-1-(1-(3,4-dichlorophenyl)cyclobutyl)-3-methylbutan-1-amine]	104 nM	51 nM	65.3 nM	–
CCSCCNC(CC)C1(c2ccc(Cl)c(Cl)c2)CCC1 (centres unmarked) [Compound 13f, 1-(1-(3,4-dichlorophenyl)cyclobutyl)-N-(2-(ethylthio)ethyl)propan-1-amine]	49.2 nM	119 nM	224 nM	–
CCCOCCCN[C@H](CC(C)C)C1(c2ccc(Cl)c(Cl)c2)CCC1 [Compound 8d, (R)-1-(1-(3,4-Dichlorophenyl)cyclobutyl)-N-(3-propoxypropyl)-3-methylbutan-1-amine]	5.45 nM	72 nM	3.8 nM	–
CCOCCNC(CC(C)C)C1(c2ccc(Cl)c(Cl)c2)CCC1 (centres unmarked) [Compound 8a, 1-(1-(3,4-Dichlorophenyl)cyclobutyl)-N-(2-ethoxyethyl)-3-methylbutan-1-amine]	2.38 nM	46.7 nM	1.4 nM	–
CCSCCCCNC(CC(C)C)C1(c2ccc(Cl)cc2)CCC1 (centres unmarked) [Compound 12b, 1-(1-(4-Chlorophenyl)cyclobutyl)-N-(4-(ethylthio)butyl)-3-methylbutan-1-amine]	67.6 nM	51.9 nM	18.8 nM	–
CCSCCCCNC(CC(C)C)C1(c2ccc(Cl)c(Cl)c2)CCC1 (centres unmarked) [Compound 13c, 1-(1-(3,4-Dichlorophenyl)cyclobutyl)-N-(4-(ethylthio)butyl)-3-methylbutan-1-amine]	23.9 nM	17.1 nM	14.8 nM	–
CCOc1ccc(C2(C(CC(C)C)NCCSCC)CCC2)cc1 (centres unmarked) [Compound 12c, 1-(1-(4-Ethoxyphenyl)cyclobutyl)-N-(2-(ethylthio)ethyl)-3-methylbutan-1-amine]	116 nM	1420 nM	3.31 nM	–
COCCCCN[C@H](CC(C)C)C1(c2ccc(Cl)c(Cl)c2)CCC1 [Compound 8h, (R)-1-(1-(3,4-Dichlorophenyl)cyclobutyl)-N-(4-methoxybutyl)-3-methylbutan-1-amine]	2.39 nM	12.7 nM	1.19 nM	–
CCOCCCCN[C@H](CC(C)C)C1(c2ccc(Cl)c(Cl)c2)CCC1 [Compound 8j, (R)-1-(1-(3,4-Dichlorophenyl)cyclobutyl)-N-(4-ethoxybutyl)-3-methylbutan-1-amine]	1.16 nM	11 nM	0.8 nM	–
CCS(=O)(=O)CCCCNC(CC(C)C)C1(c2ccc(Cl)c(Cl)c2)CCC1 (centres unmarked) [Compound 17a, 1-(1-(3,4-Dichlorophenyl)cyclobutyl)-N-(4-(ethylsulfonyl)butyl)-3-methylbutan-1-amine]	29.4 nM	44.7 nM	38.4 nM	–
CC(C)CC(N)C1(c2ccc(Cl)cc2)CCC1 (centres unmarked) [Compound M2]	–	–	–	16 h
CNC(CC(C)C)C1(c2ccc(Cl)cc2)CCC1 (centres unmarked) [Compound M1]	–	–	–	14 h
